Here are results for 3 compounds from patent US8993717B2, “Gadd45beta targeting agents” (Imperial Innovations Limited, priority 2009, dated 2015).

“And” between values parts separate entries of the source, which are not always exact repeats. Equal values may be shown once. Read-outs that look alike come from different tables or passages of the source. Square brackets hold non-standard residues; d marks the D form. Peptide text beside a SMILES is read from it. * marks the point of attachment. Cbz = O=C(OCc1ccccc1)*

Data set [1] has as its system IKK/NF-κB, ERK and p38 pathways. As to the kind of experiment: Activation of IKK/NF-κB, ERK and p38 pathways in multiple myeloma cells. The class given is cell-based, human. Particulars: data not shown.
Data set [2] concerns primary B and T lymphocytes. The data set is described as follows: [3H]thymidine incorporation in purified primary B and T lymphocytes. Particulars: 100 μM, 72 hrs. The class given is cell-based, mouse. On the procedure:
In order to determine the in vitro therapeutic index of Z-/mDTPs, viability and proliferation assays were also performed with primary untransformed cells of both human and mouse origin, after treatment with either 10 μM or 100 μM of Z-DTP1, Z-DTP2 and Z-DNC. To this end, bone marrow stromal cells (BMSCs) peripheral blood mononuclear cells (PBMNCs) and mesenkymal stem cells (MSCs) were purified from healthy individuals after Ficoll-Hypaque density separation, in accordance with the protocols reported in the reference by Piva R. et all 2008 Blood 111: 2765-2775). BMSCs, PBMNCs, and MSCs cells were then treated for the times indicated and with the peptide concentrations specified in FIGS. 15A and 15B. To further establish the specificity of the cytotoxic activity of Z-/mDTPs for cancer cells, we also used primary B and T lymphocytes purified from the spleen and lymph nodes of mice, respectively, essentially as described in the reference by Shirakawa et al 2010 Cell Mal immunology 1-12. B and T cells were then activated by simulation with 1 ng/mL of LPS for 16 hrs and subsequently treated with 100 μM of Z-DTP1, Z-DTP2 or Z-DNC for 72 hrs as shown in FIG. 15B.
In general terms: Incorporation of labelled thymidine or its analogues reports DNA synthesis.

The subject of data set [3] is KMS12 multiple myeloma cells. The data set is described as follows: [3H]thymidine incorporation assay in KMS12. The following applies: read-out: IC50 [H^3] thymidine incorporation assay in KMS12. It is filed as cell-based, human.
Method: In these latter assays, the effects of Z-DTPs, Ac-DTPs and Z-LTPs on the survival/proliferation of tumour cell lines was investigated by measuring DNA synthesis using standard tritiated thymidine ([^3H]thymidine; [^3H]-TdR) uptake assays. In the analyses shown, cells were incubated for 24, 72, 120 or 144 hrs at 37° C. in the presence or absence of control or bioactive tetrapeptides, as indicated, then subjected to an additional incubation for 18 hrs with [^3H]-TdR (0.037 MBq/well, equivalent to 0.5 μCi/well). Cells were subsequently harvested onto glass fibre filter mats using a 96-well plate automated cell harvester, after which scintillation fluid was added, and [^3H]thymidine incorporation measured by liquid scintillation spectroscopy on a beta counter. The results are expressed as the percentages of the counts per minute (c.p.m.) (directly correlating with the extent of cell proliferation) measured with tetrapeptide-treated cultures relative to the c.p.m. measured with the corresponding cultures incubated with medium alone (untreated cells). All experiments were performed in triplicate.
For data set [4], the system named is KMS11 multiple myeloma cells. As to the kind of experiment: [3H]thymidine incorporation assay in KMS11. The class given is cell-based, human. The following applies: read-out: IC50 [H^3] thymidine incorporation assay in KMS11. On the procedure: Cultures of multiple myeloma cells and treatments with Z-DTPs were carried out as described in Example 8 (see below). The effects of Z-DTPs on the survival/proliferation of multiple myeloma cells were evaluated by the use of [^3H]thymidine) incorporation assays, performed as also described in Example 8. The amount of cell proliferation measured with each of the Z-DTPs' concentrations used and with the untreated cultures (i.e. cultures incubated with medium alone), was expressed as counts per minute (c.p.m.)—which directly correlate with the extent of cell proliferation. All experiments were performed in triplicate.
In these latter assays, the effects of Z-DTPs, Ac-DTPs and Z-LTPs on the survival/proliferation of tumour cell lines was investigated by measuring DNA synthesis using standard tritiated thymidine ([^3H]thymidine; [^3H]-TdR) uptake assays. In the analyses shown, cells were incubated for 24, 72, 120 or 144 hrs at 37° C. in the presence or absence of control or bioactive tetrapeptides, as indicated, then subjected to an additional incubation for 18 hrs with [^3H]-TdR (0.037 MBq/well, equivalent to […]). Cells were subsequently harvested onto glass fibre filter mats using a 96-well plate automated cell harvester, after which scintillation fluid was added, and [^3H]thymidine incorporation measured by liquid scintillation spectroscopy on a beta counter. The results are expressed as the percentages of the counts per minute (c.p.m.) (directly correlating with the extent of cell proliferation) measured with tetrapeptide-treated cultures relative to the c.p.m. measured with the corresponding cultures incubated with medium alone (untreated cells). All experiments were performed in triplicate.

Data set [5] can be described thus: Mouse pharmacokinetics study, single i.v. injection. It is filed as in vivo, male CD1 mice. The following applies: for Last Time point: in h (unit assumed); for kel: 0.693/t1/2, table note; for half-life / clearance / Vd: male, CD1, mouse; for C0 / MRT inf / AUC: mouse; for AUC: read-out: AUC to Last; for acute toxicity in mice: single i.v. dose 10 mg/kg. On the procedure:
Z-DTP2 and Z-mDTP3 were administered intravenously to mice. Blood samples were collected at up to 7 time points after intravenous (i.v.) injection of the compounds over 8 hrs, and plasma was analysed by LC-MS/MS to determine the concentration of the compounds at each time point.
Three male CD1 mice, 25-30 grams each, were dosed per administration route per time-point, per compound. The test compound was administered intravenously (at a typical dose level of 10 mg of compound per kg of body weight). Animals were given free access to food throughout the study.
Blood samples were centrifuged to obtain the plasma, which was then transferred to a separate labelled container. Aliquots from the individual time points for the three animals were analysed singly. Proteins were precipitated by adding three volumes of methanol and centrifuging for 30 min at 4° C. Aliquots of 100 μl of the resulting supernatants were diluted with 200 μl of HPLC grade water in wells of a 96-well plate.
Standard curves were prepared in blank plasma matrices and treated in an identical manner to the samples. The plasma samples were quantified by LC-MS/MS, and the concentration of each compound in the plasma were reported in μg/mL.
Pharmacokinetic parameters were calculated employing non-compartmental model analysis, as described in the web site http://www.pharsight.com/main.php
The test compound concentration in plasma samples was measured by LC-MS/MS. The data were quantified using a five-point standard curve over a range of 3-3000 ng/mL.
Proteins were precipitated from 50 μL aliquots of the individual plasma samples by adding 150 μL methanol. Following protein precipitation, plasma samples were centrifuged for 30 min at 4° C. Aliquots of 100 μL of the resulting supernatant were diluted with 200 μL of HPLC grade water in a 96 well plate. The test compound was then quantified by LC-MS/MS from a five-point standard curve prepared by spiking plasma with varying concentrations of test compound dissolved in DMSO over a final concentration range of 3-3000 ng/mL (final DMSO concentration 1%) and treated in an identical manner to the test samples as described above.

The mark [6] stands for this setting: plasma, iv, 10 mg/kg, 10 mg/kg i.v., male CD1 mice, read-out: Total CL (converted).
[7] abbreviates: plasma, iv, 10 mg/kg, 10 mg/kg i.v., male CD1 mice, read-out: Vss.
[8] abbreviates: plasma, iv, 10 mg/kg, 10 mg/kg i.v., male CD1 mice, read-out: Vβ.
The mark [9] stands for this setting: plasma, iv, 10 mg/kg i.v., male CD1 mice.

`NC(=O)[C@@H](Cc1ccccc1)NC(=O)[C@@H](Cc1c[nH]cn1)NC(=O)[C@@H](CC(=O)O)NC(=O)[C@@H](Cc1ccc(O)cc1)NC(=O)OCc1ccccc1` [Compound 1, Z-Tyr-Asp-His-Phe-NH2] (Cbz-[dY][dD][dH][dF]-NH2): the “effects on the IKK/NF-κB, ERK and p38 pathways” value in data set [1] is reported as “no effects were observed”. For the same compound, the “toxicity to primary B and T lymphocytes from mice” value in data set [2] was “no toxicity”.

As a reminder, the MRT inf is a mean duration of stay, worked out from the concentration-time curve. The AUC is concentration integrated over time. As for `CC(=O)N[C@H](Cc1ccc(O)cc1)C(=O)N[C@H](CCCNC(=N)N)C(=O)N[C@H](Cc1ccccc1)C(N)=O` [Compound 17, Ac-D-Tyr-D-Arg-D-Phe-NH2] (Ac-[dY]-[dR]-[dF]-NH2), the IC50 in data set [3] (Day 1) turned out to be 354 nM; in data set [3] (Day 3), 81 nM; in data set [3] (Day 6, listed as mDTP3), 25 nM; in data set [3] (Day 6), 16 nM; in data set [4] (Day 1) it was 1000 nM; in data set [4] (Day 6, listed as mDTP3), 16 nM. The IC50 in data set [4] (Day 6) came to 25 nM. In addition, in data set [1], the “effects on the IKK/NF-κB, ERK and p38 pathways” value is listed as “no effects were observed”. In addition, the “Last Time point” value in data set [5] (10 mg/kg i.v., male CD1 mice) came to 6.667. In data set [5], the kel result is on record as “kel/t1/2 = 0.693/2.08 = 0.3323 hr^−1”. Further, the “total clearance, times lower than that of Z-DTP2” value in data set [5] (i.v., mice) was 3 times. For the same compound, the half-life in data set [5] (in vivo, iv, 10 mg/kg, T1/2) was 1.26 h; in data set [5] (plasma, iv, 10 mg/kg, i.v., mice, read-out: initial distributive half-life), ~0.0833 h; in data set [5] (plasma, iv, 10 mg/kg, i.v., mice, read-out: terminal half-life (converted)), ~8 h. The clearance in data set [5] (setting [6]) is 0.736 mL/min and 27.1 mL/min/kg; in data set [5] (plasma, iv, 10 mg/kg, i.v., mice, read-out: values of total clearance in the range) it was 22 to 27 mL/min/kg. For the same compound, the Vd in data set [5] (setting [7]) came to 0.0126 L; in data set [5] (setting [8]) it was 0.0756 L. This compound gave a C0 in data set [5] (setting [9]) of 29100 ng/mL. The compound also had a mean residence time MRT inf in data set [5] (setting [9]) of 0.281 h. Also, the exposure (AUC) in data set [5] (setting [9]) is 6430 ng·h/mL. Further, the “acute toxicity in mice” value in data set [5] is recorded as “absence of acute toxicity”.

On to `N=C(N)NCCC[C@@H](NC(=O)[C@@H](CCC(=O)O)NC(=O)[C@@H](Cc1ccc(O)cc1)NC(=O)OCc1ccccc1)C(=O)N[C@H](Cc1ccccc1)C(N)=O` [Compound 9, Z-D-Tyr-D-Glu-D-Arg-D-Phe-NH2] (Cbz-[dY][dE][dR][dF]-NH2), for which the IC50 in data set [3] (Day 1) is 1300 nM; in data set [3] (Day 3, listed as Z-DTP2), 144 nM; in data set [3] (Day 3), 141 nM; in data set [3] (Day 6), 66 nM; in data set [4] (Day 1, listed as Z-DTP2), 2880 nM; in data set [4] (Day 1), 2900 nM. The IC50 stood at 25.7 nM in data set [4] (Day 3) and 66 nM in data set [4] (Day 6). Besides, in data set [2], the “toxicity to primary B and T lymphocytes from mice” value is on record as “no toxicity”. For the same compound, in data set [5] (10 mg/kg i.v., male CD1 mice), the “Last Time point” value stood at 8.0. Besides, the kel result in data set [5] is “kel/t1/2 = 0.693/2.08 = 0.3323 hr^−1”. The half-life was 2.08 h in data set [5] (in vivo, iv, 10 mg/kg, T1/2); ~2 h in data set [5] (plasma, intravenous, text b344, read-out: half-lives in vivo (converted)); ~0.0833 h in data set [5] (plasma, iv, mice, read-out: initial distributive half-life); ~8 h in data set [5] (plasma, iv, mice, read-out: terminal half-life (converted)). Also, the clearance was 2.18 mL/min and 78.1 mL/min/kg in data set [5] (setting [6]); 66 to 90 mL/min/kg in data set [5] (plasma, iv, mice, read-out: values of total clearance in the range). The results for the Vd in data set [5] (setting [7]) and in data set [5] (setting [8]) were 0.126 L and 0.394 L, respectively. Further, in data set [5] (setting [9]), the C0 was 8740 ng/mL. This compound also registered an MRT inf in data set [5] (setting [9]) of 0.973 h. For the same compound, the AUC in data set [5] (setting [9]) is 2080 ng·h/mL. Further, the “acute toxicity in mice” value in data set [5] is reported as “absence of acute toxicity”.
